Numbered stars: 1 amine (or outer) side, 2 acyl side, 3 side chain; on linkers, the order of the positions; unused ones are H or OH. Bridge positions count the residues as written; N and C are the ends. Square brackets hold non-standard residues; d marks the D form. Side chains are listed from the residue outwards. * marks the point of attachment. C18 diacid = O=C(O)CCCCCCCCCCCCCCCCC(=O)*; γGlu = O=C(O)[C@H](CCC(=O)[*:2])N[*:1]; AEEA = NCCOCCOCC(=O)O; Aib = CC(C)(N)C(=O)O
What was measured:
4 h fasted mice = experiment: Blood glucose after single administration of peptides; format: in vivo
Protocol: Differences were considered statistically significant at p<0.05. Data analysis was carried out with GraphPad software (GraphPad Prism).

Human GIPR = target: T1, Human GIPR (Homo sapiens, UniProt P48546); experiment: GPCR cell-based cAMP assay, human GIP receptor; settings: stably transfected CHO-Kl cells, 0.1% casein
T1 construct: expressed in transfected cells; host or cells: CHO-K1, stably transfected
T1 sequence (P48546 22-466): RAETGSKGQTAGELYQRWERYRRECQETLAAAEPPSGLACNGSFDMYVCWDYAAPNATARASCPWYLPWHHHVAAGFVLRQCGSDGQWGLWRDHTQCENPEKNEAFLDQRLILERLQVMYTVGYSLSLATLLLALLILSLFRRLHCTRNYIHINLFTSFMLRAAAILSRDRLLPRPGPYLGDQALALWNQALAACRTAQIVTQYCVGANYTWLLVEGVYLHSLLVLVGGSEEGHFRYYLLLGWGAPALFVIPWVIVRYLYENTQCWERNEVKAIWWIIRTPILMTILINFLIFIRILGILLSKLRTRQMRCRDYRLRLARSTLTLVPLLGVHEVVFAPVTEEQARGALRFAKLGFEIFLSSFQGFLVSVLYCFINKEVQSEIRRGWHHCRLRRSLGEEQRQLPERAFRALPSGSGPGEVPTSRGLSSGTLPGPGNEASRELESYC
Protocol: (§1) Experimental protocol: Cells were seeded in a total volume of 20 μL into white walled, 384-well microplates and incubated at 37° C. overnight prior to testing. Prior to testing cell plating media was exchanged with 10 μL of Assay buffer (HBSS+10 mM HEPES). All compounds were run in assay buffer containing 0.1% casein. Briefly, intermediate dilution of sample stocks was performed to generate 4× sample in assay buffer. 5 μL of 4× sample was added to cells and incubated at 37° C. for 30 minutes. Final assay vehicle concentration was 1%. […] Microplates were read following signal generation with PerkinElmer Envision instrument for chemiluminescent signal detection.
(§2) The results are expressed as a percent efficacy relative to the maximum response of the control ligand.

Human GLP-1R = Human GLP-1R (Homo sapiens, UniProt P43220); experiment: GPCR cell-based cAMP assay, human GLP-1 receptor; parameters: expressed in transfected cells; host or cells: CHO-K1, stably transfected; settings: stably transfected CHO-Kl cells, 0.1% casein
Human GLP-1R, sequence (P43220 24-463): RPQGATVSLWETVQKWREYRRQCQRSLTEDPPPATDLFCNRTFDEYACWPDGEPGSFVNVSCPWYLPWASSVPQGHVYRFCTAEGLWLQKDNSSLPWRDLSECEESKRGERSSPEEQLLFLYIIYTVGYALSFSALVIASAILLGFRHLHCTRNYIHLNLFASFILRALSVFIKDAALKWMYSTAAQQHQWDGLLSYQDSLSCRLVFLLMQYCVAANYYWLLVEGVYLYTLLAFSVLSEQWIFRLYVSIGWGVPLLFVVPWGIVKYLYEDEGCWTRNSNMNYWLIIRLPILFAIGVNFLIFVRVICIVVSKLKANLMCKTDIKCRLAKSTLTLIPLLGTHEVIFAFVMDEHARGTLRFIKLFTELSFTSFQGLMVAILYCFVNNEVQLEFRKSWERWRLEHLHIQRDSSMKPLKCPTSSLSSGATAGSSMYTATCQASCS
Protocol: as §1, §2

| EC50 (Human GIPR) | EC50 (Human GLP-1R) | Substance | Blood glucose, 120 min (4 h fasted mice; 4 h fasted mice, single s.c. 10 nmol/Kg, 120 min after injection, mean ± SEM) | Blood glucose, 240 min (4 h fasted mice; 4 h fasted mice, single s.c. 10 nmol/Kg, 240 min after injection, mean ± SEM) | Blood glucose, Time 0 (4 h fasted mice; 4 h fasted mice, single s.c. 10 nmol/Kg, Time 0 (baseline), mean ± SEM) | Significantly reduced blood glucose at 120 min and 240 min compared to time 0 (4 h fasted mice; single s.c. 10 nmol/kg) |
| --- | --- | --- | --- | --- | --- | --- |
|  |  | Cagrilintide [reference compound] | 189.7 ± 5.52 mg/dL | 164.6 ± 6.48 mg/dL | 169.0 ± 3.45 mg/dL | not |
| 0.029 nM | 1 nM | Y[Aib]EGTFTSDYSI[Aib]LDKIAQQAFVQWLIAGGPSKCNTATCATQK([AEEA-AEEA-γGlu-C18 diacid])LAEFLRHSSNNFGPILPPTNVGSHTP-NH2 (disulfide 34-39 (inferred)) [SEQ ID NO. 56, Y-Aib-E-G-T-F-T-S-D-Y-S-I-Aib-LDKIAQQAFVQWLIAGGPSKCNTATCATQK*-LAEFLRHSSNNFGPILPPTNVGSHTP-NH2-acetate salt (wherein K* = Lys(AEEAc-AEEAc-γ-Glu-17-carboxyheptadecanoyl))] |  |  |  |  |

— patent publication US20240059753A1, “COMPOSITIONS INCLUDING MULTI-AGONIST PEPTIDES AND METHODS OF MANUFACTURE AND USE” (Pep2Tango Therapeutics Inc., priority 2022, published 2024)
